In paper PMC5402301, “Discovery of tauroursodeoxycholic acid biotransformation enzymes from the gut microbiome of black bears using metagenomics” (Scientific Reports, 2017):

What was measured:
Experiment in all cases: NADP+ reduction at […] nm, Michaelis-Menten fit
Type in all cases: biochemical
Settings in all cases: NADP+ (0.5 mM in standard assay), 50 mM Tris-HCl pH 8.0, 25 °C
H1-a-2 = test system: T1, H1-a-2
T1 construct: full-length, GST fusion (pGEX-6P-1) expressed in E. coli BL21, GST tag cut off with PreScission protease; raw reads SRA SRP079591

S1-a-2 = test system: T2, S1-a-2
T2 construct: full-length, GST fusion (pGEX-6P-1) expressed in E. coli BL21, GST tag cut off with PreScission protease; raw reads SRA SRP079591

Y1-a-1 = test system: T3, Y1-a-1
T3 construct: full-length, GST fusion (pGEX-6P-1) expressed in E. coli BL21, GST tag cut off with PreScission protease; raw reads SRA SRP079591

S1-a-1 = test system: T4, S1-a-1
T4 construct: full-length, GST fusion (pGEX-6P-1) expressed in E. coli BL21, GST tag cut off with PreScission protease; raw reads SRA SRP079591

H1-a-1 = test system: T5, H1-a-1
T5 construct: full-length, GST fusion (pGEX-6P-1) expressed in E. coli BL21, GST tag cut off with PreScission protease; raw reads SRA SRP079591

Y1-b-1 = test system: T6, Y1-b-1
T6 construct: full-length, GST fusion (pGEX-6P-1) expressed in E. coli BL21, GST tag cut off with PreScission protease; raw reads SRA SRP079591

Km (H1-a-2) [µM]	Km (S1-a-2) [µM]	Km (Y1-a-1) [µM]	Km (S1-a-1) [µM]	Km (H1-a-1) [µM]	Km (Y1-b-1) [µM]	Compound
695	263	556	132	390	–	C[C@H](CCC(=O)NCCS(=O)(=O)O)[C@H]1CC[C@H]2[C@@H]3[C@H](O)C[C@@H]4C[C@H](O)CC[C@]4(C)[C@H]3CC[C@]12C [TCDCA]
–	–	–	–	–	6150	C[C@H](CCC(=O)NCCS(=O)(=O)O)[C@H]1CC[C@H]2[C@@H]3[C@@H](O)C[C@@H]4C[C@H](O)CC[C@]4(C)[C@H]3CC[C@]12C [TUDCA]
